Laboratory results published in paper PMC6522510 (Nature Communications, 2019).

Columns and labels:
Parameters in all cases: species or system AML cell lines (8); Primary HTS, single concentration about 10 uM, Cell Titer Glo viability; log10 luminescence, per cent inhibition relative to cycloheximide control
Settings in all cases: 72 h, relative to cycloheximide control, log10 luminescence; inhibitor
U937 = tested on: U937
MOLM-13 = tested on: MOLM-13
CHRF288-11 = tested on: CHRF288-11
CMK = tested on: CMK
ML-2 = tested on: ML-2
CMS = tested on: CMS
MV4-11 = tested on: MV4-11
M07e = tested on: M07e

Row | Structure (SMILES) | U937 %inh (U937) | MOLM-13 %inh (MOLM-13) | CHRF288-11 %inh (CHRF288-11) | CMK %inh (CMK) | ML-2 %inh (ML-2) | CMS %inh (CMS) | MV4-11 %inh (MV4-11) | M07e %inh (M07e)
1 | COc1ccccc1C(=O)c1cnc(NC2CCN(S(C)(=O)=O)CC2)nc1N [SJ000581142-1] | 8.409% | 12.27% | 2.52% | 37.79% | 3.568% | 7.4% | 2.743% | 6.858%
2 | CN[C@H](C#Cc1c(F)ccc2c1/C(=C/c1[nH]ccc1OC)C(=O)N2)CO [SJ000581143-1] | 84.86% | 108.7% | 59.49% | 110.7% | 61.18% | 103.6% | 81.33% | 77.31%
3 | COc1cccc(C2=C(c3c(C)n(C)c4ccccc34)C(=O)NC2=O)c1 [SJ000581144-1] | 1.12% | 3.467% | 0.2394% | 1.238% | -0.7501% | -0.561% | 0.7267% | 8.342%
4 | CC(C)Nc1ncc2cc(Oc3ccc(F)cc3F)c(=O)n(C)c2n1 [SJ000581145-1] | 2.438% | 2.517% | -0.5311% | 7.64% | 0.005285% | 3.456% | 3.959% | 6.769%
5 | COc1cccc(C2=C(c3cn(C)c4ccc(Cl)cc34)C(=O)NC2=O)c1 [SJ000581146-1] | 1.209% | 1.622% | -4.42% | -1.255% | -1.297% | 4.874% | 2.685% | 8.183%
6 | O=C1NC(=NCCc2ccccn2)S/C1=C\c1ccc2ncccc2c1 [SJ000581148-1] | 2.939% | 58.53% | 5.232% | 25.57% | 2.217% | 10.48% | 45.12% | 10.8%
7 | COc1cccc(C2=C(c3cn(C)c4cc(F)ccc34)C(=O)NC2=O)c1 [SJ000581149-1] | 0.6707% | 1.739% | 1.293% | -0.7568% | -0.5942% | 6.064% | 0.4897% | 3.649%
8 | Nc1c(C(=O)c2cccc(C(O)(CO)CO)c2)cnn1-c1ccc(F)cc1 [SJ000581150-1] | -0.03378% | 1.373% | -1.927% | -0.6841% | -0.9818% | 0.8259% | 2.176% | 0.2609%
9 | CCn1c(=O)c(Oc2ccc(F)cc2F)cc2cnc(NC3CCOCC3)nc21 [SJ000581151-1] | 0.6844% | 2.299% | -1.135% | 8.128% | -1.057% | -2.221% | 2.556% | 11.45%
10 | Cc1ccc(C)c(C2=C(c3cn(C)c4ccccc34)C(=O)NC2=O)c1 [SJ000581152-1] | 4.715% | 2.3% | 30.38% | 4.497% | 0.7091% | -1.704% | 2.862% | -1.997%
11 | O=C1NC(=NCc2ccccc2Br)S/C1=C\c1ccc2ncccc2c1 [SJ000581153-1] | 5.903% | 2.882% | 2.479% | 1.742% | 3.418% | 1.226% | 3.118% | 7.782%
12 | Cn1cc(C2=C(c3cn(C)c4cc(N)ccc34)C(=O)NC2=O)c2ccccc21 [SJ000581154-1] | 39.79% | 77.98% | 40.91% | 105.6% | 25.1% | 49.07% | 66.53% | 38.42%
